In one assay the test system is MCF7 cells. The assay is described as follows: CellTiter-Glo Luminescent Cell Viability Assay on ER-positive breast cancer MCF-7 cells. The format is cell-based, human. Particulars: average ± standard deviation when tested more than 3 times, read-out: Inhibition of the viability of breast cancer cells, IC50. An excerpt: B: In Vitro CellTiter-Glo® Luminescent Cell Viability Assay on ER-Positive Breast Cancer MCF-7 Cells:
MCF7 cells are breast cancer cell lines that highly express ER-66, ER-46 and ER-36. (Relevance of breast cancer cell lines as models for breast tumours: an update. Marc Lacroix, Guy Leclercq, Breast Cancer Research and Treatment (2004) 83, 249-289; Wang et al., Proc. Natl. Acad. Sci. U.S.A. 103:9063-9068 (2006)). MCF7 cells were obtained from ATCC and maintained in Dulbecco's Modified Eagles Medium (DMEM) and 10% fetal calf serum at 37° C., under 5% CO2 atmosphere. The cells were seeded on 96-well plate at a density of 6×10^3 cells per well. MCF7 cells were treated with a test compound dissolved in DMSO at the concentrations of zero, 0.3 μM, 0.5 μM, 1 μM, 2 μM, 3 μM, 5 μM, 10 μM, 20 μM, 30 μM, 50 μM and 100 μM for 72 hours. Treated cells were examined by CellTiter-Glo® Luminescent Cell Viability Assay Kit (Promega), and luminescence values were recorded with Envision.

Another assay deals with MDA-MB-231 cells. Briefly: CellTiter-Glo Luminescent Cell Viability Assay on ER-negative breast cancer MDA-MB-231 cells. Conditions: average ± standard deviation when tested more than 3 times, read-out: Inhibition of the viability of breast cancer cells, IC50. The format is cell-based. Here is the method:
A: In Vitro CellTiter-Glo® Luminescent Cell Viability Assay on ER-Negative Breast Cancer MDA-MB-231 Cells:
MDA-MB-231 cells were maintained at 37° C., under 5% CO2 atmosphere in DMEM containing 10% fetal calf serum. The cells were seeded on 96-well plate at a density of 6×10^3 cells per well. MDA-MB-231 cells were treated with a test compound dissolved in DMSO at the concentrations of zero, 0.3 μM, 0.5 μM, 1 μM, 2 μM, 3 μM, 5 μM, 10 μM, 20 μM, 30 μM, 50 μM and 100 μM for 72 hours. Treated cells were examined by CellTiter-Glo® Luminescent Cell Viability Assay Kit (Promega), and luminescence values were recorded with Envision.

Molecules are shown by their SMILES. Read-outs that look alike come from different tables or passages of the source. Bounds are passed on as bounds.

For 22 compounds, IC50 results are on record in US9090583B2, “Benzopyrone estrogen receptor regulator” (BEIJING SHENOGEN PHARMA GROUP LTD., priority 2010, dated 2015).

As for `COc1c(-c2ccsc2)oc2c(CC=C(C)C)c(O)c(CC=C(C)C)c(O)c2c1=O` [Compound 40, 2-(thiophen-3-yl)-5,7-dihydroxy-3-methoxy-6,8-di(3-methyl-2-buten-1-yl)-4H-benzopyran-4-one], the IC50 in the assay on MCF7 cells (Homo sapiens, MCF7, 72 h) worked out at 23.5 µM; in the assay on MDA-MB-231 cells (Homo sapiens, MDA-MB-231, 72 h), 24 µM.
As for `COc1c(-c2ccco2)oc2c(CC=C(C)C)c(O)c(CC=C(C)C)c(O)c2c1=O` [Compound 41, 2-(furan-2-yl)-5,7-dihydroxy-3-methoxy-6,8-di(3-methyl-2-buten-1-yl)-4H-benzopyran-4-one], the IC50 in the assay with MCF7 cells (Homo sapiens, MCF7, 72 h) was 22.2 µM; with MDA-MB-231 cells (Homo sapiens, MDA-MB-231, 72 h), over 100 µM.
The like results for `COc1c(-c2ccoc2)oc2c(CC=C(C)C)c(O)c(CC=C(C)C)c(O)c2c1=O` [Compound 42, 2-(furan-3-yl)-5,7-dihydroxy-3-methoxy-6,8-di(3-methyl-2-buten-1-yl)-4H-benzopyran-4-one] were, in that order, 12.4 µM and 28.7 µM.
Take `COc1c(-c2cscn2)oc2c(CC=C(C)C)c(O)c(CC=C(C)C)c(O)c2c1=O` [Compound 43, 2-(thiazol-4-yl)-5,7-dihydroxy-3-methoxy-6,8-di(3-methyl-2-buten-1-yl)-4H-benzopyran-4-one]: the IC50 is 25.7 µM with MCF7 cells (Homo sapiens, MCF7, 72 h) and over 100 µM with MDA-MB-231 cells (Homo sapiens, MDA-MB-231, 72 h).
As to `COc1c(-c2cocn2)oc2c(CC=C(C)C)c(O)c(CC=C(C)C)c(O)c2c1=O` [Compound 44, 2-(oxazol-4-yl)-5,7-dihydroxy-3-methoxy-6,8-di(3-methyl-2-buten-1-yl)-4H-benzopyran-4-one], the IC50 is over 100 µM in the assay with MCF7 cells (Homo sapiens, MCF7, 72 h) and over 100 µM with MDA-MB-231 cells (Homo sapiens, MDA-MB-231, 72 h).
`COc1c(-c2ccnn2C)oc2c(CC=C(C)C)c(O)c(CC=C(C)C)c(O)c2c1=O` [Compound 45, 2-(1-methyl-1H-pyrazol-5-yl)-5,7-dihydroxy-3-methoxy-6,8-di(3-methyl-2-buten-1-yl)-4H-benzopyran-4-one]: the IC50 is 31.1 µM in the assay with MCF7 cells (Homo sapiens, MCF7, 72 h) and over 100 µM in the assay on MDA-MB-231 cells (72 hours).
As for `COc1c(-c2cnn(C)c2)oc2c(CC=C(C)C)c(O)c(CC=C(C)C)c(O)c2c1=O` [Compound 46, 2-(1-methyl-1H-pyrazol-4-yl)-5,7-dihydroxy-3-methoxy-6,8-di(3-methyl-2-buten-1-yl)-4H-benzopyran-4-one], the IC50 in the assay with MCF7 cells (Homo sapiens, MCF7, 72 h) is over 100 µM; in the assay with MDA-MB-231 cells (Homo sapiens, MDA-MB-231, 72 h) it was over 100 µM.
With `COc1c(-c2nccn2C)oc2c(CC=C(C)C)c(O)c(CC=C(C)C)c(O)c2c1=O` [Compound 47, 2-(1-methyl-1H-imidazol-2-yl)-5,7-dihydroxy-3-methoxy-6,8-di(3-methyl-2-buten-1-yl)-4H-benzopyran-4-one], the IC50 with MCF7 cells (Homo sapiens, MCF7, 72 h) was over 100 µM; with MDA-MB-231 cells (Homo sapiens, MDA-MB-231, 72 h), 43.5 µM.
`COc1c(-c2ccnn2C)oc2c(CC=C(C)C)c(O)c(CC=C(C)C)c(O)c2c1=O` [Compound 48, 2-(1-methyl-1H-pyrazol-5-yl)-5,7-dihydroxy-3-methoxy-6,8-di(3-methyl-2-buten-1-yl)-4H-benzopyran-4-one]: the IC50 in the assay on MCF7 cells (72 hours) amounted to 37.2 µM; in the assay with MDA-MB-231 cells (72 hours) it was 25 µM.
In the case of `COc1c(-c2cc3ccccc3o2)oc2c(CC=C(C)C)c(O)c(CC=C(C)C)c(O)c2c1=O` [Compound 50, 2-(benzofuran-2-yl)-5,7-dihydroxy-3-methoxy-6,8-di(3-methyl-2-buten-1-yl)-4H-benzopyran-4-one], the IC50 with MCF7 cells (Homo sapiens, MCF7, 72 h) was 20.4 µM; in the assay with MDA-MB-231 cells (Homo sapiens, MDA-MB-231, 72 h), 13.6 µM.
On to `COc1c(-c2ccnc(F)c2)oc2c(CC=C(C)C)c(O)c(CC=C(C)C)c(O)c2c1=O` [Compound 51, 2-(2-fluoropyridin-4-yl)-5,7-dihydroxy-3-methoxy-6,8-di(3-methyl-2-buten-1-yl)-4H-benzopyran-4-one], for which the IC50 in the assay on MCF7 cells (Homo sapiens, MCF7, 72 h) was over 100 µM; in the assay with MDA-MB-231 cells (Homo sapiens, MDA-MB-231, 72 h), over 100 µM.
Regarding `COc1c(-c2ccc(Cl)nc2)oc2c(CC=C(C)C)c(O)c(CC=C(C)C)c(O)c2c1=O` [Compound 52, 2-(6-chloropyridin-3-yl)-5,7-dihydroxy-3-methoxy-6,8-di(3-methyl-2-buten-1-yl)-4H-benzopyran-4-one], the IC50 in the assay on MCF7 cells (Homo sapiens, MCF7, 72 h) came out at 7.04 ± 1.43 µM; with MDA-MB-231 cells (Homo sapiens, MDA-MB-231, 72 h), 8.34 ± 1.63 µM.
For `COc1c(-c2ccc(Cl)cn2)oc2c(CC=C(C)C)c(O)c(CC=C(C)C)c(O)c2c1=O` [Compound 53, 2-(5-chloropyridin-2-yl)-5,7-dihydroxy-3-methoxy-6,8-di(3-3-methyl-2-buten-1-yl)-4H-benzopyran-4-one], the results for the IC50 in the assay with MCF7 cells (72 hours) and with MDA-MB-231 cells (72 hours) were 19.5 ± 1.02 µM and 17 ± 4.97 µM, respectively.
As for `COc1c(-c2ccc(F)nc2)oc2c(CC=C(C)C)c(O)c(CC=C(C)C)c(O)c2c1=O` [Compound 54, 2-(6-fluoropyridin-3-yl)-5,7-dihydroxy-3-methoxy-6,8-di(3-3-methyl-2-buten-1-yl)-4H-benzopyran-4-one], the values for the IC50 in the assay on MCF7 cells (72 hours) and in the assay with MDA-MB-231 cells (72 hours) were 7.06 ± 3.16 µM and 10.3 ± 0.38 µM, respectively.
Turning to `COc1c(-c2ccnc(Cl)c2)oc2c(CC=C(C)C)c(O)c(CC=C(C)C)c(O)c2c1=O` [Compound 55, 2-(2-chloropyridin-4-yl)-5,7-dihydroxy-3-methoxy-6,8-di(3-methyl-2-buten-1-yl)-4H-benzopyran-4-one], the IC50 was found to be 4.17 ± 2.45 µM in the assay with MCF7 cells (Homo sapiens, MCF7, 72 h) and 5.51 ± 0.02 µM with MDA-MB-231 cells (Homo sapiens, MDA-MB-231, 72 h).
Turning to `COc1c(-c2ccc(C(=O)O)cc2)oc2c(CC=C(C)C)c(O)c(CC=C(C)C)c(O)c2c1=O` [Compound 56, 4-[5,7-dihydroxy-3-methoxy-6,8-di(3-methyl-2-butenyl)-4-oxo-4H-benzopyran-2-yl]benzoic acid], the concentration for half-maximal inhibition (IC50) with MCF7 cells (Homo sapiens, MCF7, 72 h) was 29.2 µM; in the assay on MDA-MB-231 cells (Homo sapiens, MDA-MB-231, 72 h) it was 5.96 µM.
Taken in the same sequence, the figures for `COc1c(-c2ccc(OC(F)(F)F)cc2)oc2c(CC=C(C)C)c(O)c(CC=C(C)C)c(O)c2c1=O` [Compound 58, 2-(4-trifluoromethoxyphenyl)-5,7-dihydroxy-3-methoxy-6,8-di(3-methyl-2-buten-1-yl)-4H-benzopyran-4-one] were over 100 µM and 3.63 µM.
Regarding `COc1c(-c2ccc(N(C)C)cc2)oc2c(CC=C(C)C)c(O)c(CC=C(C)C)c(O)c2c1=O` [Compound 59, 2-(4-dimethylaminophenyl)-5,7-dihydroxy-3-methoxy-6,8-di(3-methyl-2-buten-1-yl)-4H-benzopyran-4-one], the IC50 is 5.12 µM in the assay on MCF7 cells (Homo sapiens, MCF7, 72 h) and over 100 µM with MDA-MB-231 cells (Homo sapiens, MDA-MB-231, 72 h).
The like results for `COc1c(-c2ccc(S(C)(=O)=O)cc2)oc2c(CC=C(C)C)c(O)c(CC=C(C)C)c(O)c2c1=O` [Compound 64, 2-(4-methanesulfonylphenyl)5,7-dihydroxy-3-methoxy-6,8-di(3-methyl-2-buten-1-yl)-4H-benzopyran-4-one] were, in that order, 40.6 µM and 2.45 µM.
Taken in the same sequence, the figures for `COc1c(-c2ccc(C(C)=O)cc2)oc2c(CC=C(C)C)c(O)c(CC=C(C)C)c(O)c2c1=O` [Compound 65, 2-(4-acetylphenyl)-5,7-dihydroxy-3-methoxy-6,8-di(3-methyl-2-buten-1-yl)-4H-benzopyran-4-one] were 10.2 µM and over 100 µM.
Turning to `COc1c(-c2ccc(C(C)O)cc2)oc2c(CC=C(C)C)c(O)c(CC=C(C)C)c(O)c2c1=O` (centres unmarked) [Compound 67], the IC50 in the assay with MCF7 cells (72 hours) was determined as 4.66 µM; with MDA-MB-231 cells (72 hours), 3.27 µM.
As for `COc1c(-c2cncs2)oc2c(CC=C(C)C)c(O)c(CC=C(C)C)c(O)c2c1=O` [Compound 68, 2-(thiazol-5-yl)-5,7-dihydroxy-3-methoxy-6,8-di(3-methyl-2-buten-1-yl)-4H-benzopyran-4-one], the IC50 in the assay on MCF7 cells (72 hours) turned out to be 8.89 µM; with MDA-MB-231 cells (72 hours) it was 23.8 µM.
